From ChEMBL document CHEMBL5614404, “Optimization of potent, broad-spectrum, and specific anti-influenza compounds targeting RNA polymerase PA-PB1 heterodimerization” (Eur J Med Chem, 2024)

Experiments:
Influenza A virus [1] = assay: Antiviral activity against Amantadine-resistant Influenza A virus California/07/2009 (H1N1) clinical isolate infected in MDCK cells expressing ST6Gal by crystal violet staining based plaque reduction assay; type: functional, organism-based
Influenza A virus [2] = assay: Antiviral activity against Amantadine/Oseltamivir-resistant Influenza A virus Denmark/528/2009 (H1N1) clinical isolate infected in MDCK cells expressing ST6Gal by crystal violet staining based plaque reduction assay; type: functional, organism-based
Influenza A virus [3] = assay: Antiviral activity against Amantadine-resistant/Oseltamivir-sensitive Influenza A virus California/07/2009 (H1N1) infected in MDCK cells by plaque reduction assay; type: functional, organism-based
Influenza A virus [4] = assay: Antiviral activity against Amantadine-resistant/Oseltamivir-sensitive Influenza A virus WSN/1933 (H1N1) infected in MDCK cells by plaque reduction assay; type: functional, organism-based
Influenza A virus [5] = assay: Antiviral activity against Amantadine-resistant/Oseltamivir-sensitive Influenza A virus Switzerland/9715293/2013 (H3N2) infected in MDCK cells by plaque reduction assay; type: functional, organism-based
Influenza A virus [6] = assay: Antiviral activity against Amantadine/Oseltamivir-resistant Influenza A virus Denmark/528/2009 (H1N1) infected in MDCK cells by plaque reduction assay; type: functional, organism-based
Influenza A virus [7] = assay: Antiviral activity against Amantadine/Oseltamivir-resistant Influenza A virus North Carolina/39/2009 (H1N1) infected in MDCK cells by plaque reduction assay; type: functional, organism-based
Influenza B virus = assay: Antiviral activity against Amantadine-resistant/Oseltamivir-sensitive Influenza B virus Wisconsin/01/2010 infected in MDCK cells by plaque reduction assay; type: functional, organism-based; details: Wisconsin/01/2010, MDCK
Influenza A virus [8] = assay: Antiviral activity against Amantadine/Oseltamivir-resistant Influenza A virus Washington/29/2009 (H1N1) infected in MDCK cells by plaque reduction assay; type: functional, organism-based
Influenza A virus [9] = assay: Antiviral activity against Amantadine/Oseltamivir-resistant Influenza A virus Texas/04/2009 (H1N1) infected in MDCK cells by plaque reduction assay; type: functional, organism-based
Influenza A virus [10] = assay: Antiviral activity against Oseltamivir-resistant Influenza A virus Parma/24/09 (H1N1) infected in MDCK cells incubated for 48 hrs by plaque reduction assay; type: functional, organism-based
[11] = target: T1, RNA-directed RNA polymerase (Influenza A virus (strain A/Puerto Rico/8/1934 H1N1), UniProt P03428+P03431+P03433); assay: Inhibition of Influenza A virus RdRp transfected in HEK293T cells co-expressing PA/PB1/PB2/NP/firefly luciferase/Renilla luciferase assessed as impaired nuclear import preincubated for 4 hrs followed by medium replacement with compound measured after 20 hrs by minireplicon assay; type: cell-based
[12] = target: T1, RNA-directed RNA polymerase; assay: Inhibition of Influenza A virus RdRp transfected in HEK293T cells co-expressing PA/PB1/PB2/NP/firefly luciferase/Renilla luciferase preincubated for 4 hrs followed by medium replacement with compound measured after 20 hrs by minireplicon assay; type: cell-based
Influenza A virus [13] = assay: Antiviral activity against Influenza A virus PR/8/34 infected in human A549 cells assessed as reduction in viral progeny preincubated for 1 hr followed by media replacement with compound measured after 23 hrs by virus yeild reduction assay; type: functional, organism-based; details: for EC50: PR/8/34, A549; for Activity: time 24.0 hrs

For `C[C@@H](c1ccccc1)n1nnnc1[C@H](c1ccsc1)N1CCC(n2c(=O)[nH]c3ccccc32)CC1`, the EC50 (Influenza A virus [1]) was 600 nM and the EC50 (Influenza A virus [2]) was 600 nM.

With `O=C1C(c2ncc([N+](=O)[O-])s2)CC[C@@H]2CCCC[C@@H]12` (some centres not stated) the EC50 (Influenza A virus [3]) was 930 nM, the EC50 (Influenza A virus [4]) was 930 nM and the EC50 (Influenza A virus [5]) was 930 nM. It also gave an EC50 (Influenza A virus [6]) of 930 nM, an EC50 (Influenza A virus [7]) of 930 nM and an EC50 (Influenza B virus) of 930 nM. For the same compound, the EC50 (Influenza A virus [8]) was 930 nM and the EC50 (Influenza A virus [9]) was 930 nM.

In the case of `NC(=O)c1ncn([C@@H]2O[C@H](CO)[C@@H](O)[C@H]2O)n1` [RIBAVIRIN], the EC50 (Influenza A virus [10]) is reported as 22000 nM and the EC50 [11] is reported as 21700 nM.

With `O=C(Nc1sc2c(c1C(=O)Nc1ccccn1)CCCCC2)c1ccc([N+](=O)[O-])cc1` the IC50 [12] was 270 nM.

Work on `O=C(Nc1sc2c(c1C(=O)Nc1ccccn1)CCCCC2)c1ccccc1O` yielded an IC50 [12] of 2800 nM.

`O=C(Nc1sc2c(c1C(=O)Nc1nccs1)CCCCC2)c1ccccc1O` showed an IC50 [12] of 330 nM.

Work on `O=C(Nc1sc2c(c1C(=O)Nc1ccccc1O)CCCCC2)c1ccc([N+](=O)[O-])cc1O` yielded an EC50 (Influenza A virus [10]) of 81 nM, an EC50 [11] of 130 nM and an EC50 (Influenza A virus [13]) of 87 nM. For the same compound, the Activity (Influenza A virus [13]) was “Dose-Dependent Effect”.

Work on `N#Cc1ccc(C(=O)Nc2sc3c(c2C(=O)Nc2ccc(C(F)(F)F)cc2)CCCCC3)cc1` yielded an EC50 [11] greater than 10000 nM.

With `O=C(Nc1sc2c(c1C(=O)Nc1ccc(Cl)cc1)CCCCC2)c1ccccc1O` the IC50 [12] was 1000 nM.

For `O=C(Nc1sc2c(c1C(=O)Nc1ccc(F)cc1)CCCCC2)c1ccccc1O`, the IC50 [12] was 470 nM.

Compound `N#Cc1ccc(C(=O)Nc2sc3c(c2C(=O)Nc2ccccc2O)CCCCC3)cc1` has an EC50 (Influenza A virus [10]) of 280 nM, an EC50 [11] of 32 nM and an EC50 (Influenza A virus [13]) of 140 nM. For the same compound, the Activity (Influenza A virus [13]) was “Dose-Dependent Effect”.

`NC(=O)c1nc(F)cnc1O` was tested, and the EC50 (Influenza A virus [13]) was 7930 nM.
